Results from PubChem BioAssay (NCI).
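Results reflect a 48-hour exposure of cells in 96-well plates to compound at five concentrations. TGI is the concentration that stops growth completely.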

How the values were obtained:
Experiment in all cases: growth of human tumour cells (NCI), 48 h
786-0 renal = tested on: 786-0 renal
A498 renal = tested on: A498 renal
A549 NSCLC = tested on: A549 NSCLC
ACHN renal = tested on: ACHN renal
BT-549 breast = tested on: BT-549 breast
CAKI-1 renal = tested on: CAKI-1 renal
COLO 205 colon = tested on: COLO 205 colon
DU-145 prostate = tested on: DU-145 prostate
EKVX NSCLC = tested on: EKVX NSCLC
HCT-116 colon = tested on: HCT-116 colon
HCT-15 colon = tested on: HCT-15 colon
HL-60(TB) leukemia = tested on: HL-60(TB) leukemia
HOP-62 NSCLC = tested on: HOP-62 NSCLC
HOP-92 NSCLC = tested on: HOP-92 NSCLC
HS 578T breast = tested on: HS 578T breast
HT29 colon = tested on: HT29 colon
IGROV1 ovarian = tested on: IGROV1 ovarian
KM12 colon = tested on: KM12 colon
LOX IMVI melanoma = tested on: LOX IMVI melanoma
M14 melanoma = tested on: M14 melanoma
MALME-3M melanoma = tested on: MALME-3M melanoma
MCF7 breast = tested on: MCF7 breast
MDA-MB-231 breast = tested on: MDA-MB-231 breast
MDA-MB-435 = tested on: MDA-MB-435
MDA-N = tested on: MDA-N
MOLT-4 leukemia = tested on: MOLT-4 leukemia
NCI-H226 lung = tested on: NCI-H226 lung
NCI-H23 lung = tested on: NCI-H23 lung
NCI-H522 lung = tested on: NCI-H522 lung
NCI/ADR-RES ovarian = tested on: NCI/ADR-RES ovarian
OVCAR-3 ovarian = tested on: OVCAR-3 ovarian
OVCAR-4 ovarian = tested on: OVCAR-4 ovarian
OVCAR-5 ovarian = tested on: OVCAR-5 ovarian
OVCAR-8 ovarian = tested on: OVCAR-8 ovarian
PC-3 prostate = tested on: PC-3 prostate
RPMI-8226 leukemia = tested on: RPMI-8226 leukemia
SF-268 CNS = tested on: SF-268 CNS
SF-295 CNS = tested on: SF-295 CNS
SF-539 CNS = tested on: SF-539 CNS
SK-MEL-2 melanoma = tested on: SK-MEL-2 melanoma
SK-MEL-28 melanoma = tested on: SK-MEL-28 melanoma
SK-MEL-5 melanoma = tested on: SK-MEL-5 melanoma
SK-OV-3 ovarian = tested on: SK-OV-3 ovarian
SN12C renal = tested on: SN12C renal
SNB-19 CNS = tested on: SNB-19 CNS
SR leukemia = tested on: SR leukemia
SW-620 colon = tested on: SW-620 colon
T-47D breast = tested on: T-47D breast
TK-10 renal = tested on: TK-10 renal
U251 CNS = tested on: U251 CNS
UACC-257 melanoma = tested on: UACC-257 melanoma
UACC-62 melanoma = tested on: UACC-62 melanoma
UO-31 renal = tested on: UO-31 renal
CCRF-CEM leukemia = tested on: CCRF-CEM leukemia
DLD-1 colon = tested on: DLD-1 colon
DMS 114 small cell lung = tested on: DMS 114 small cell lung
DMS 273 small cell lung = tested on: DMS 273 small cell lung
HCC-2998 colon = tested on: HCC-2998 colon
K-562 leukemia = tested on: K-562 leukemia
KM20L2 colon = tested on: KM20L2 colon
LXFL 529 NSCLC = tested on: LXFL 529 NSCLC
M19-MEL melanoma = tested on: M19-MEL melanoma
NCI-H460 lung = tested on: NCI-H460 lung
RXF 393 renal = tested on: RXF 393 renal
SNB-75 CNS = tested on: SNB-75 CNS
SNB-78 CNS = tested on: SNB-78 CNS
XF 498 CNS = tested on: XF 498 CNS

## CC(=O)Oc1ccc2c3c1O[C@H]1[C@H](O)CC[C@@]4(O)[C@@H](C2)N(C)CC[C@]314
786-0 renal
  TGI: > 100 µM
A498 renal
  TGI: > 100 µM
A549 NSCLC
  TGI: > 100 µM
ACHN renal
  TGI: > 100 µM
BT-549 breast
  TGI: > 100 µM
CAKI-1 renal
  TGI: > 100 µM
COLO 205 colon
  TGI: > 100 µM
DU-145 prostate
  TGI: > 100 µM
EKVX NSCLC
  TGI: > 100 µM
HCT-116 colon
  TGI: > 100 µM
HCT-15 colon
  TGI: > 100 µM
HL-60(TB) leukemia
  TGI: > 100 µM
HOP-62 NSCLC
  TGI: > 100 µM
HOP-92 NSCLC
  TGI: > 100 µM
HS 578T breast
  TGI: > 100 µM
HT29 colon
  TGI: > 100 µM
IGROV1 ovarian
  TGI: > 100 µM
KM12 colon
  TGI: > 100 µM
LOX IMVI melanoma
  TGI: > 100 µM
M14 melanoma
  TGI: > 100 µM
MALME-3M melanoma
  TGI: > 100 µM
MCF7 breast
  TGI: > 100 µM
MDA-MB-231 breast
  TGI: > 100 µM
MDA-MB-435
  TGI: > 100 µM
MDA-N
  TGI: > 100 µM
MOLT-4 leukemia
  TGI: > 100 µM
NCI-H226 lung
  TGI: > 100 µM
NCI-H23 lung
  TGI: > 100 µM
NCI-H522 lung
  TGI: > 100 µM
NCI/ADR-RES ovarian
  TGI: > 100 µM
OVCAR-3 ovarian
  TGI: > 100 µM
OVCAR-4 ovarian
  TGI: > 100 µM
OVCAR-5 ovarian
  TGI: > 100 µM
OVCAR-8 ovarian
  TGI: > 100 µM
PC-3 prostate
  TGI: > 100 µM
RPMI-8226 leukemia
  TGI: > 100 µM
SF-268 CNS
  TGI: > 100 µM
SF-295 CNS
  TGI: > 100 µM
SF-539 CNS
  TGI: > 100 µM
SK-MEL-2 melanoma
  TGI: > 100 µM
SK-MEL-28 melanoma
  TGI: > 100 µM
SK-MEL-5 melanoma
  TGI: > 100 µM
SK-OV-3 ovarian
  TGI: > 100 µM
SN12C renal
  TGI: > 100 µM
SNB-19 CNS
  TGI: > 100 µM
SR leukemia
  TGI: > 100 µM
SW-620 colon
  TGI: > 100 µM
T-47D breast
  TGI: > 100 µM
TK-10 renal
  TGI: > 100 µM
U251 CNS
  TGI: > 100 µM
UACC-257 melanoma
  TGI: > 100 µM
UACC-62 melanoma
  TGI: > 100 µM
UO-31 renal
  TGI: > 100 µM

## N#CNC(=NCCc1c[nH]c2ccccc12)Oc1ccccc1
786-0 renal
  TGI: > 100 µM
A549 NSCLC
  TGI: > 100 µM
ACHN renal
  TGI: > 100 µM
CCRF-CEM leukemia
  TGI: > 100 µM
COLO 205 colon
  TGI: > 100 µM
DLD-1 colon
  TGI: > 100 µM
DMS 114 small cell lung
  TGI: > 100 µM
DMS 273 small cell lung
  TGI: > 100 µM
EKVX NSCLC
  TGI: > 100 µM
HCC-2998 colon
  TGI: > 100 µM
HCT-116 colon
  TGI: > 100 µM
HCT-15 colon
  TGI: > 100 µM
HL-60(TB) leukemia
  TGI: > 100 µM
HOP-62 NSCLC
  TGI: > 100 µM
HT29 colon
  TGI: > 100 µM
IGROV1 ovarian
  TGI: > 100 µM
K-562 leukemia
  TGI: > 100 µM
KM12 colon
  TGI: > 100 µM
KM20L2 colon
  TGI: 49.8 µM
LOX IMVI melanoma
  TGI: > 100 µM
LXFL 529 NSCLC
  TGI: > 100 µM
M14 melanoma
  TGI: > 100 µM
M19-MEL melanoma
  TGI: > 100 µM
MOLT-4 leukemia
  TGI: > 100 µM
NCI-H226 lung
  TGI: > 100 µM
NCI-H23 lung
  TGI: > 100 µM
NCI-H460 lung
  TGI: > 100 µM
OVCAR-3 ovarian
  TGI: > 100 µM
OVCAR-4 ovarian
  TGI: > 100 µM
OVCAR-5 ovarian
  TGI: > 100 µM
OVCAR-8 ovarian
  TGI: > 100 µM
RPMI-8226 leukemia
  TGI: > 100 µM
RXF 393 renal
  TGI: > 100 µM
SF-268 CNS
  TGI: > 100 µM
SF-295 CNS
  TGI: > 100 µM
SF-539 CNS
  TGI: > 100 µM
SK-MEL-28 melanoma
  TGI: > 100 µM
SK-MEL-5 melanoma
  TGI: > 100 µM
SK-OV-3 ovarian
  TGI: > 100 µM
SN12C renal
  TGI: > 100 µM
SNB-19 CNS
  TGI: > 100 µM
SNB-75 CNS
  TGI: > 100 µM
SNB-78 CNS
  TGI: > 100 µM
SR leukemia
  TGI: > 100 µM
SW-620 colon
  TGI: > 100 µM
TK-10 renal
  TGI: > 100 µM
U251 CNS
  TGI: > 100 µM
UACC-257 melanoma
  TGI: > 100 µM
UACC-62 melanoma
  TGI: > 100 µM
UO-31 renal
  TGI: > 100 µM
XF 498 CNS
  TGI: > 100 µM

## O=c1oc2cc(O)ccc2c(O)c1Cc1c(O)c2ccc(O)cc2oc1=O
A498 renal
  TGI: > 100 µM
A549 NSCLC
  TGI: > 100 µM
BT-549 breast
  TGI: > 100 µM
CAKI-1 renal
  TGI: > 100 µM
CCRF-CEM leukemia
  TGI: > 100 µM
COLO 205 colon
  TGI: > 100 µM
DU-145 prostate
  TGI: > 100 µM
EKVX NSCLC
  TGI: > 100 µM
HCC-2998 colon
  TGI: > 100 µM
HCT-116 colon
  TGI: > 100 µM
HCT-15 colon
  TGI: > 100 µM
HL-60(TB) leukemia
  TGI: > 100 µM
HOP-62 NSCLC
  TGI: > 100 µM
HOP-92 NSCLC
  TGI: > 100 µM
HS 578T breast
  TGI: > 100 µM
HT29 colon
  TGI: > 100 µM
IGROV1 ovarian
  TGI: > 100 µM
K-562 leukemia
  TGI: > 100 µM
LOX IMVI melanoma
  TGI: > 100 µM
M14 melanoma
  TGI: > 100 µM
MALME-3M melanoma
  TGI: > 100 µM
MCF7 breast
  TGI: > 100 µM
MDA-MB-231 breast
  TGI: > 100 µM
MDA-MB-435
  TGI: > 100 µM
MDA-N
  TGI: > 100 µM
MOLT-4 leukemia
  TGI: > 100 µM
NCI-H226 lung
  TGI: > 100 µM
NCI-H23 lung
  TGI: > 100 µM
NCI-H460 lung
  TGI: > 100 µM
NCI/ADR-RES ovarian
  TGI: > 100 µM
OVCAR-3 ovarian
  TGI: > 100 µM
OVCAR-4 ovarian
  TGI: > 100 µM
OVCAR-5 ovarian
  TGI: > 100 µM
OVCAR-8 ovarian
  TGI: > 100 µM
PC-3 prostate
  TGI: > 100 µM
RXF 393 renal
  TGI: > 100 µM
SF-268 CNS
  TGI: > 100 µM
SF-295 CNS
  TGI: > 100 µM
SF-539 CNS
  TGI: > 100 µM
SK-MEL-2 melanoma
  TGI: > 100 µM
SK-MEL-28 melanoma
  TGI: > 100 µM
SK-MEL-5 melanoma
  TGI: > 100 µM
SK-OV-3 ovarian
  TGI: > 100 µM
SN12C renal
  TGI: > 100 µM
SNB-19 CNS
  TGI: > 100 µM
SNB-75 CNS
  TGI: > 100 µM
SR leukemia
  TGI: > 100 µM
SW-620 colon
  TGI: > 100 µM
T-47D breast
  TGI: > 100 µM
TK-10 renal
  TGI: > 100 µM
U251 CNS
  TGI: > 100 µM
UACC-257 melanoma
  TGI: > 100 µM
UACC-62 melanoma
  TGI: > 100 µM
UO-31 renal
  TGI: > 100 µM
